Laboratory results from patent US10188106B2 (priority 2008, dated 2019).
Counter-ions that a name gives are not always drawn. Like-named read-outs stand apart in the source and are kept apart here.

Key:
Format in all cases: in vivo
Alternaria solani = experiment: Alternaria test (tomatoes)/protective; details: tomato plants, protective spray, evaluated 3 days after inoculation; for pest or weed control at 50 ppm: rate of application 50 ppm; for pest or weed control at 25 ppm: rate of application 25 ppm
Description: (§1) Solvent: 24.5 parts by weight of acetone
(§2) • 24.5 parts by weight of dimethylacetamide Emulsifier: 1 part by weight of alkylaryl polyglycol ether
(§3) To produce a suitable preparation of active compound, 1 part by weight of active compound is mixed with the stated amounts of solvent and emulsifier, and the concentrate is diluted with water to the desired concentration.
(§4) To test for protective activity, young plants are sprayed with the preparation of active compound at the stated rate of application. After the spray coating has dried on, the plants are inoculated with an aqueous spore suspension of Alternaria solani. The plants are then placed in an incubation cabinet at approximately 20° C. and a relative atmospheric humidity of 100%.
The test is evaluated 3 days after the inoculation. 0% means an efficacy which corresponds to that of the control while an efficacy of 100% means that no disease is observed.

Botrytis cinerea = experiment: Botrytis test (beans)/protective; details: bean plants, protective spray, lesion size 2 days after inoculation
Description: as §1, §2, §3
To test for protective activity, young plants are sprayed with the preparation of active compound. After the spray coating has dried on, 2 small pieces of agar covered with growth of Botrytis cinerea are placed on each leaf. The inoculated plants are placed in a darkened chamber at 20° C. and a relative atmospheric humidity of 100%.
2 days after the inoculation, the size of the lesions on the leaves is evaluated. 0% means an efficacy which corresponds to that of the control, while an efficacy of 100% means that no disease is observed.

Phytophthora infestans = details: tomato plants, protective spray, evaluated 3 days after inoculation
Venturia inaequalis = experiment: Venturia test (apples)/protective; details: apple plants, protective spray, rate of application 100 ppm, evaluated 10 days after inoculation
Description: as §1, §2, §3
as §4, with “conidia” for “spore”, “the causal agent of apple scab (Venturia inaequalis) and” for “Alternaria solani. The plants are”, “remain for 1 day” for “placed”
The plants are then placed in a greenhouse at approximately 21° C. and a relative atmospheric humidity of approximately 90%.
The test is evaluated 10 days after the inoculation. 0% means an efficacy which corresponds to that of the control, while an efficacy of 100% means that no disease is observed.

[1] = Alternaria solani, 72 h, read-out: Efficacy in %
[2] = Alternaria solani, 72 h, rate of application 10 ppm, read-out: Efficacy in %

Compound: Cc1nn(C)c(F)c1C(=O)Nc1ccccc1C(C)CC(C)C (stereo not drawn) [N-[2-(1,3-dimethylbutyl)phenyl]-5-fluoro-1,3-dimethyl-1H-pyrazole-4-carboxamide]
- pest or weed control at 1 ppm (Alternaria solani; Alternaria solani, 72 h, rate of application 1 ppm, read-out: Efficacy in %): 18%

Compound: CO/C=C(/C(=O)OC)c1ccccc1Oc1cc(Oc2ccccc2C#N)ncn1 [azoxystrobin]
- Efficacy in % (Alternaria solani; rate of application 10 ppm): 15%

Compound: Cn1cc(C(=O)Nc2ccc(F)cc2-c2ccc(Cl)c(Cl)c2)c(C(F)F)n1 [bixafen, N-(3′,4′-dichloro-5-fluorobiphenyl-2-yl)-3-(difluoromethyl)-1-methyl-1H-pyrazole-4-carboxamide]
- pest or weed control at 1.25 ppm (Alternaria solani; Alternaria solani, 72 h, rate of application 1.25 ppm, read-out: Efficacy in %): 65%

Compound: O=C(Nc1ccccc1-c1ccc(Cl)cc1)c1cccnc1Cl [boscalid]
- Efficacy in % (Botrytis cinerea; rate of application 5 ppm): 21%

Compound: N#Cc1c(Cl)c(Cl)c(Cl)c(C#N)c1Cl [chlorothalonil]
- Efficacy in % (Phytophthora infestans; rate of application 25 ppm): 44%
- pest or weed control at 50 ppm (Alternaria solani; [1]): 71%

Compound: CN/C(=N\[N+](=O)[O-])NCc1cnc(Cl)s1 [clothianidin]
- Efficacy in % (Venturia inaequalis): 66%

Compound: CCNC(=O)NC(=O)/C(C#N)=N/OC [cymoxanil]
- Efficacy in % (Venturia inaequalis): 23%
- pest or weed control at 50 ppm (Alternaria solani; [1]): 23%

Compound: O=[N+]([O-])c1cc(C(F)(F)F)c(Cl)c([N+](=O)[O-])c1Nc1ncc(C(F)(F)F)cc1Cl [fluazinam]
- Efficacy in % (Botrytis cinerea; rate of application 10 ppm): 79%

Compound: N#Cc1c[nH]cc1-c1cccc2c1OC(F)(F)O2 [fludioxonil]
- Efficacy in % (Botrytis cinerea; rate of application 5 ppm): 45%

Compound: CO/N=C(/C1=NOCCO1)c1ccccc1Oc1ncnc(Oc2ccccc2Cl)c1F [fluoxastrobin]
- pest or weed control at 10 ppm (Alternaria solani; [2]): 15%

Compound: CCCCCOC(=O)Nc1cccc(CON=C(c2ccccc2)c2nnnn2C)n1 [formula 1, pentyl {6-[({[(1-methyl-1H-tetrazol-5-yl)(phenyl)methylidene]amino}oxy)methyl]pyridin-2-yl}carbamate]
- Efficacy in % (Phytophthora infestans; rate of application 0.25 ppm): 47%
- Efficacy in % (Phytophthora infestans; rate of application 0.5 ppm): 57%
- Efficacy in % (Phytophthora infestans; rate of application 1 ppm): 77%
- Efficacy in % (Venturia inaequalis): 8%
- pest or weed control at 5 ppm (Alternaria solani; Alternaria solani, 72 h, rate of application 5 ppm, read-out: Efficacy in %): 0%
- pest or weed control at 10 ppm (Alternaria solani; [2]): 0%
- pest or weed control at 25 ppm (Alternaria solani; [1]): 0%
- pest or weed control at 50 ppm (Alternaria solani; [1]): 8%
- pest or weed control at 100 ppm (Alternaria solani; Alternaria solani, 72 h, rate of application 100 ppm, read-out: Efficacy in %): 0%
- Efficacy in % (Botrytis cinerea; rate of application 50 ppm): 4%
- Efficacy in % (Botrytis cinerea; rate of application 100 ppm): 4%

Compound: CCO[PH](=O)O [fosetyl-Al]
- Efficacy in % (Phytophthora infestans; rate of application 10 ppm): 0%

Compound: O=[N+]([O-])NC1=NCCN1Cc1ccc(Cl)nc1 [imidacloprid]
- Efficacy in % (Venturia inaequalis): 4%
- pest or weed control at 25 ppm (Alternaria solani; [1]): 0%

Compound: CC(C)NC(=O)N1CC(=O)N(c2cc(Cl)cc(Cl)c2)C1=O [iprodione]
- Efficacy in % (Botrytis cinerea; rate of application 100 ppm): 66%

Compound: Cc1ccc(C(C)NC(=O)[C@@H](NC(=O)OC(C)C)C(C)C)cc1 (stereo partly drawn) [iprovalicarb]
- Efficacy in % (Phytophthora infestans; rate of application 1 ppm): 16%

Compound: CCCOC(=O)NCCCN(C)C [propamocarb-HCl]
- Efficacy in % (Venturia inaequalis): 4%
- pest or weed control at 50 ppm (Alternaria solani; [1]): 38%

Compound: OC(Cc1ccccc1Cl)(Cn1nc[nH]c1=S)C1(Cl)CC1 (stereo not drawn) [prothioconazole]
- pest or weed control at 2.5 ppm (Alternaria solani; Alternaria solani, 72 h, rate of application 2.5 ppm, read-out: Efficacy in %): 23%

Compound: COC(=O)N(OC)c1ccccc1COc1ccn(-c2ccc(Cl)cc2)n1 [pyraclostrobin]
- pest or weed control at 10 ppm (Alternaria solani; [2]): 45%

Compound: CC(C)(C)C(O)(CCc1ccc(Cl)cc1)Cn1cncn1 (stereo not drawn) [tebuconazole]
- pest or weed control at 10 ppm (Alternaria solani; [2]): 55%

Compound: CON=C(C(=O)OC)c1ccccc1CON=C(C)c1cccc(C(F)(F)F)c1 [trifloxystrobin]
- pest or weed control at 10 ppm (Alternaria solani; [2]): 35%

Compound: mancozeb
- Efficacy in % (Phytophthora infestans; rate of application 10 ppm): 0%

Compound: propineb [Ppopineb]
- Efficacy in % (Phytophthora infestans; rate of application 10 ppm): 0%
